According to patent US20190328752A1, “COMPOUNDS FOR THE TREATMENT OF NIEMANN-PICK DISEASE TYPE C1” (UNIVERSITEIT MAASTRICHT, priority 2016, published 2019):
Read-outs that look alike come from different tables or passages of the source.

Assays:
[1] = in vivo; cited from earlier work
NPC1WT BMDMs [2] = assay: TNFα secretion (ELISA) by oxLDL/LPS-stimulated BMDMs, wild type; assay type: cell-based, mice; settings: 0.6 μM sitostanol 4 hours after oxLDL, then LPS; vs carrier control; p=0.000; FIG. 1A
Protocol: (§1) Bone-marrow derived cells (BMDCs) were isolated from tibea and femurs of NPC1 wild type (WT) and mutant mice on a C57BL/6 background. BMDCs were cultured for 8-9 days in RPMI-1640 (GIBCO Invitrogen, Breda, The Netherlands) with 10% heat-inactivated fetal calf serum (Bodinco B. V. Alkmaar, The Netherlands), penicillin (100 U/ml), streptomycin (100 μg/ml) and L-glutamine (2 mM) (all GIBCO invitrogen, Breda, The Netherlands) enriched with 20% L929-conditioned medium (LCM) to generate bone marrow-derived macrophages (BMDMs). After attachment, the BMDMs were seeded at 350,000 cells per well in 24 wells plates and incubated with oxLDL for 24. After the oxLDL stimulation, the cells were washed and incubated with cyclodextrin (carrier control) or 0.6 μM sitostanol for 4 hours. The BMDMs were subsequently washed and stimulated with 100 ng/ml LPS for 4 hours to generate an inflammatory response. Finally, BMDMs were lysed for RNA isolation. Gene expression analysis of inflammatory (TNFα, Arginase 1 and inducible NOS), anti-inflammatory (IL-10) and lysosomal cholesterol trafficking (NPC1 and NPC2) genes was performed. […]
(§2) Mouse TNFα secreted protein levels were determined by using the TNFα ELISA kit (mouse TNFα ELISA Ready-SET-Go!, eBioscience, San Diego, Calif.). […] Optical density (OD) was measured at 450 nm by using a spectrophotometer and TNFα concentrations were determined.

NPC1mut BMDMs [3] = assay: TNFα secretion (ELISA) by oxLDL/LPS-stimulated BMDMs, mutant; assay type: cell-based, mice; settings: 0.6 μM sitostanol 4 hours after oxLDL, then LPS; vs carrier control; p=0.000; FIG. 1A
Protocol: as §1, §2

NPC1mut BMDMs [4] = assay: Gene expression of inflammatory mediators in oxLDL/LPS-stimulated BMDMs, mutant; assay type: cell-based, mice; settings: FIG. 1B
Protocol: (§3) Bone-marrow derived cells (BMDCs) were isolated from tibea and femurs of NPC1 wild type (WT) and mutant mice on a C57BL/6 background. BMDCs were cultured for 8-9 days in RPMI-1640 (GIBCO Invitrogen, Breda, The Netherlands) with 10% heat-inactivated fetal calf serum (Bodinco B. V. Alkmaar, The Netherlands), penicillin (100 U/ml), streptomycin (100 μg/ml) and L-glutamine (2 mM) (all GIBCO invitrogen, Breda, The Netherlands) enriched with 20% L929-conditioned medium (LCM) to generate bone marrow-derived macrophages (BMDMs). After attachment, the BMDMs were seeded at 350,000 cells per well in 24 wells plates and incubated with oxLDL for 24. After the oxLDL stimulation, the cells were washed and incubated with cyclodextrin (carrier control) or 0.6 μM sitostanol for 4 hours. The BMDMs were subsequently washed and stimulated with 100 ng/ml LPS for 4 hours to generate an inflammatory response. Finally, BMDMs were lysed for RNA isolation. Gene expression analysis of inflammatory (TNFα, Arginase 1 and inducible NOS), anti-inflammatory (IL-10) and lysosomal cholesterol trafficking (NPC1 and NPC2) genes was performed. Furthermore, the supernatant was frozen until protein expression analysis of the pro-inflammatory TNFα was performed by Enzyme-Linked Immunosorbent Assay (ELISA).

NPC1WT BMDMs [5] = assay: Gene expression of inflammatory mediators in oxLDL/LPS-stimulated BMDMs, wild type; assay type: cell-based, mice; settings: 0.6 μM sitostanol; p=0.028; FIG. 1B
Protocol: as §3

[6] = humans, cited from earlier work

Question: For cyclodextrin, which “ability to cross the blood brain barrier” value [1] is on record?
Answer: Its value is “inability of cyclodextrin to cross the blood brain barrier”.

Question: Which TNFα secretion (NPC1WT BMDMs [2]) does the source give for `CC[C@H](CC[C@@H](C)[C@H]1CC[C@H]2[C@@H]3CC[C@H]4C[C@@H](O)CC[C@]4(C)[C@H]3CC[C@]12C)C(C)C` [sitostanol] here?
Answer: The TNFα secretion was “significantly reduced”.

Question: And the TNFα secretion (NPC1mut BMDMs [3])?
Answer: Its TNFα secretion is “significantly reduced”.

Question: And the “gene expression of arginase 1 (M2 macrophage marker)” value (NPC1mut BMDMs [4]; 0.6 μM sitostanol vs carrier control, p=0.000)?
Answer: Its value is “significantly increased”.

Question: What about the “gene expression of Tnfα” value (NPC1mut BMDMs [4]; 0.6 μM sitostanol vs carrier control, p=0.136) of the same molecule?
Answer: The value was “trend towards reduced expression”.

Question: And the “iNOS/arginase 1 gene expression ratio” value (NPC1mut BMDMs [4]; 0.6 μM sitostanol vs control-treated NPC1mut BMDMs, p=0.074)?
Answer: Its value is “trend towards a reduced”.

Question: What about the “gene expression of IL-10” value (NPC1WT BMDMs [5]) of the same molecule?
Answer: Its value is “increased”.

Question: And the plasma concentration ([6]; 3 grams per day)?
Answer: Its plasma concentration is 40.9 microgram per dl.

Question: What about the plasma concentration ([6]; 9 grams per day) of the same molecule?
Answer: The plasma concentration was 57.2 microgram per dl.
